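Dose response: 5 concentrations. Exposure: 48 h. Format: 96-well plates. Endpoint: linear interpolation; highest concentration if not reached. GI50 = concentration required for 50% inhibition of growth. TGI marks complete inhibition of growth.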

The text below walks through data of PubChem BioAssay (NCI).

Test systems include ACHN renal; EKVX NSCLC; HCC-2998 colon; HL-60(TB) leukemia; HOP-18 NSCLC; HOP-62 NSCLC; OVCAR-3 ovarian; SF-539 CNS; SNB-78 CNS; TK-10 renal.
Assay in all cases: growth of human tumour cells (NCI), 48 h

As to `CC(O)(c1ccc(OCCC[N+](C)(C)C)cc1)C(C)(O)c1ccc(OCCC[N+](C)(C)C)cc1` (stereo unspecified), the TGI with ACHN renal, in the test on EKVX NSCLC, in the test with HCC-2998 colon, in the test on HL-60(TB) leukemia, with HOP-18 NSCLC and in the test on HOP-62 NSCLC was more than 100 µM throughout. The TGI in the test with OVCAR-3 ovarian, in the test on SF-539 CNS and in the test on SNB-78 CNS was more than 100 µM throughout.

With `CSC(=NC(=O)c1ccccc1)SCCSC(=NC(=O)c1ccccc1)SC`, the TGI with ACHN renal, in the test on EKVX NSCLC, in the test with HCC-2998 colon, in the test on HL-60(TB) leukemia, in the test with HOP-62 NSCLC and in the test with OVCAR-3 ovarian was more than 100 µM each time. Moreover, the TGI with SF-539 CNS, in the test on SNB-78 CNS and in the test with TK-10 renal was more than 100 µM in each case.

As to `CN(CCc1ccccn1)/[N+]([O-])=N/O` (tested in a mixture with another compound), the TGI in the test with ACHN renal, with EKVX NSCLC, with HCC-2998 colon, in the test on HL-60(TB) leukemia, in the test with HOP-18 NSCLC and in the test with HOP-62 NSCLC was more than 100 µM in each case. The TGI in the test on OVCAR-3 ovarian, in the test with SF-539 CNS and in the test on SNB-78 CNS was more than 100 µM each time.

Turning to `CCCCCCCCC1C(C)c2c([nH]c3ccccc23)C2C(=O)N(c3ccccc3)C(=O)C21` (stereo unspecified), the TGI with ACHN renal amounted to 23.7 µM; in the test with EKVX NSCLC it was 51.1 µM; in the test with HCC-2998 colon, 25.6 µM; with HL-60(TB) leukemia, 13.9 µM; in the test on HOP-62 NSCLC it was 38.3 µM; in the test with OVCAR-3 ovarian, 16.7 µM. Further, the TGI in the test with SF-539 CNS worked out at 32.7 µM; in the test with SNB-78 CNS, 29.8 µM; in the test with TK-10 renal, 37.1 µM.

For `CCC1=CCC(P(=O)(c2ccccc2)c2ccccc2)CC1C` (stereo unspecified), the TGI with EKVX NSCLC is more than 100 µM; with HL-60(TB) leukemia it was 53.6 µM; with HOP-18 NSCLC, more than 100 µM; with OVCAR-3 ovarian, more than 100 µM; with SF-539 CNS, more than 100 µM; with SNB-78 CNS it was more than 100 µM. The compound also displayed a TGI in the test with TK-10 renal of more than 100 µM.

Turning to `CN(C)c1ccc(/C=N/n2c(CCCCc3n[nH]c(=S)n3/N=C/c3ccc(N(C)C)cc3)n[nH]c2=S)cc1`, the GI50 is more than 100 µM with ACHN renal; more than 100 µM in the test on EKVX NSCLC; more than 100 µM in the test with HCC-2998 colon; more than 100 µM in the test on HL-60(TB) leukemia; 66.8 µM in the test on HOP-62 NSCLC; more than 100 µM in the test on OVCAR-3 ovarian. The GI50 in the test with SF-539 CNS and with TK-10 renal was more than 100 µM throughout. In addition, the TGI with ACHN renal, in the test on EKVX NSCLC, with HCC-2998 colon, in the test with HL-60(TB) leukemia, with HOP-62 NSCLC and in the test with OVCAR-3 ovarian was more than 100 µM in each case. Besides, the TGI in the test with SF-539 CNS and in the test on TK-10 renal was more than 100 µM each time.

Take `COc1ccc(Cl)cc1Nc1nc(C(F)(F)F)ccc1C(=O)N/N=C/c1ccccc1Cl`: the GI50 with ACHN renal is 2.01 µM; with EKVX NSCLC, 2.04 µM; in the test on HCC-2998 colon it was 1.97 µM; in the test with HL-60(TB) leukemia, 2.74 µM; in the test on HOP-62 NSCLC, 7.7 µM; in the test on OVCAR-3 ovarian, 1.04 µM. The results for the GI50 in the test with SF-539 CNS and in the test with TK-10 renal were 1.85 µM and 0.442 µM, respectively. Moreover, the TGI in the test on ACHN renal was more than 25.4 µM; in the test with EKVX NSCLC, 7.22 µM; in the test with HCC-2998 colon, 19.2 µM; in the test with HL-60(TB) leukemia, more than 19.7 µM; in the test on HOP-62 NSCLC, more than 29.2 µM; in the test on OVCAR-3 ovarian it was 3.75 µM. Moreover, the TGI stood at 5.03 µM in the test on SF-539 CNS and 4.61 µM in the test on TK-10 renal.

With `CC[C@@]1(O)C(=O)OCc2c1cc1n(c2=O)Cc2cc3cccc(N)c3nc2-1`, the GI50 was 2.81 µM with ACHN renal; 33 µM with EKVX NSCLC; 16.6 µM in the test with HCC-2998 colon; 3.52 µM in the test on HL-60(TB) leukemia; 2.36 µM in the test with HOP-62 NSCLC; 66.8 µM with OVCAR-3 ovarian. Also, the values for the GI50 in the test on SF-539 CNS, with SNB-78 CNS and in the test with TK-10 renal were 3.7 µM, more than 100 µM and more than 100 µM, respectively. The TGI in the test with ACHN renal is 10.3 µM; with EKVX NSCLC, more than 100 µM; in the test on HCC-2998 colon, 48.1 µM; in the test on HL-60(TB) leukemia, more than 100 µM; in the test with HOP-62 NSCLC, 6.24 µM; in the test with OVCAR-3 ovarian, more than 100 µM. The results for the TGI in the test on SF-539 CNS, with SNB-78 CNS and in the test with TK-10 renal were 17 µM, more than 100 µM and more than 100 µM, respectively.

Regarding `Cc1cc(=O)n2c(cc3cccccc32)n1`, the TGI in the test with ACHN renal, in the test on EKVX NSCLC, with HCC-2998 colon, in the test on HL-60(TB) leukemia, with HOP-62 NSCLC and in the test on OVCAR-3 ovarian was more than 100 µM in each case. For the same compound, the TGI in the test with SF-539 CNS, in the test on SNB-78 CNS and in the test on TK-10 renal was more than 100 µM throughout.

For `O=C(Nc1cccc(-n2ccc3c(NC(=O)c4ccccc4)nccc32)c1)c1ccc(Cl)c(Cl)c1`, the GI50 in the test on ACHN renal is 0.177 µM; in the test on EKVX NSCLC it was 0.704 µM; with HCC-2998 colon, 0.286 µM; in the test with HL-60(TB) leukemia, 0.188 µM; with HOP-62 NSCLC it was 0.24 µM; with OVCAR-3 ovarian, 0.0413 µM. Besides, the GI50 in the test on SF-539 CNS is 0.197 µM; in the test with TK-10 renal it was 0.865 µM. Besides, the TGI in the test on ACHN renal worked out at 1.71 µM; with EKVX NSCLC it was 3.34 µM; in the test with HCC-2998 colon, 1.27 µM; with HL-60(TB) leukemia it was 0.977 µM; in the test with HOP-62 NSCLC, 1.87 µM; with OVCAR-3 ovarian, 0.162 µM. The TGI turned out to be 0.952 µM in the test with SF-539 CNS and 2.28 µM with TK-10 renal.

In the case of `CC(=O)OC(C)(C)C[N+](=O)[O-]`, the TGI in the test with ACHN renal, in the test with EKVX NSCLC, with HCC-2998 colon, in the test on HL-60(TB) leukemia, with HOP-62 NSCLC and in the test with OVCAR-3 ovarian was more than 100 µM throughout. Besides, the TGI in the test on SF-539 CNS and in the test on TK-10 renal was more than 100 µM each time.
